# According to patent US20230257429A1, “PEPTIDE ADJUVANT FOR ITS THERAPEUTIC APPLICATIONS IN VIRAL AND TUMOUR VACCINE DEVELOPMENT AND CANCER IMMUNOTHERAPY AND AUTOIMMUNE DISEASE DIAGNOSIS AND TREATMENTS” (National University of Singapore, priority 2020, published 2023):
# Entries after “also recorded” stand apart in the source; their conditions may differ. Peptide text beside a SMILES is read from it.
# What was measured:
# Assay type in all cases: cell-based, human
# [1] = test system: red blood cells (RBC); assay: Hemolytic assay; conditions: 1 hr at 37° C., normalized to Triton X-100
# Experimental: Buffy coats were used as a source of red blood cells (RBC). Buffy coat (2 ml) was washed first in 10 ml of 150 mM NaCl and then washed twice in PBS (pH 7.4) by centrifugation for 5 min at 500 g. The cell pellets were resuspended in 10 ml of PBS as RBC stocks. The different peptides were diluted in PBS (100 μg/ml) and, in triplicates, the peptides were added to V-bottom 96-well plates at 10 μl/well. As controls, the same volumes of PBS or 20% (v/v) Triton X-100 were added. RBC were diluted 50 times in PBS and added to the plates at 190 μl/well. After incubation for 1 hr at 37° C., the plates were centrifuged for 5 min at 500 g. The supernatants (100 μl/well) were transferred to flat bottom plates and absorbance was measured at OD405. Data were normalized to the average OD405 readings obtained with 1% (v/v) Triton X-100 and presented as percentage hemolysis.
# [2] = test system: dendritic cells (DC); assay: Dendritic cell penetration, confocal microscopy; conditions: data not shown
# [3] = test system: dendritic cells (DC); assay: DC maturation, surface markers by flow cytometry; conditions: 200 μg/ml, 48 hr
# Experimental: In some experiments, to detect surface proteins on cultured DC, cells were harvested at day 6 and re-suspended at 1×10^5/ml in macrophage serum free medium (Thermo Fisher Scientific, cat #12065074). Cells were incubated for 1 hr on ice with fluorescent antibodies specific for CD14 (PE), CD1a (PE), or isotype-matched IgG. Cells were washed and analysed by flow cytometry. The harvested DC were also resuspended in the medium at 5×10^4/ml and cultured for 48 hr with LPS (0.5 μg/ml), P2M6 (200 μg/ml) or, as a control, PBS. Cells were then incubated with fluorescently tagged antibodies specific for MHC class II, CD40, CD80, CD83, CD86, and corresponding isotype controls. Cells were analysed by flow cytometry.
# NCL-P2 was previously shown to activate DC as judged by TNFα induction [Wu, S., et al., Cell Death Dis 12: 477 (2021)]. Whether P2+G effectively activates these cells into mature antigen-presenting cells (APC) for effective T cell activation has not been examined. To this end, DC were stimulated for 48 hr with P2+G (200 μg/ml) or, as a positive control, LPS (0.5 μg/ml). As a negative control, DC were cultured without specific stimulation by adding equivalent volumes of PBS. DC were cultured from monocytes and were typically CD14^lo/− CD1a^hi [Cao, W., et al., Blood 107: 2777-2785 (2006)]. Cells were examined for surface expression of MHC class II, CD40, CD80, CD83 and CD86.
# [4] = test system: PBMC; assay: Peptide binding to and penetration of PBMC, flow cytometry; conditions: PBMC, peptide 200 μg/ml, 1 hr at 4° C.
# Outline: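 PBMC (3×10^6/ml, serum-free macrophage medium) incubated 1 h with biotinylated-detected peptides at 200 μg/ml, at 37 °C or 4 °C. Streptavidin-AF488 flow cytometry with viability dye, with or without permeabilization to separate surface binding from internalization; monocytes, T and B cells gated separately.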
# [5] = test system: dendritic cells (DC); assay: Dendritic cell penetration, confocal microscopy
# Experimental: DC were harvested and cultured overnight on glass coverslips. The cells were first incubated for 1, 5, 15, 30 or 60 min with P2M6 (200 μg/ml) at 4° C. and then fixed in 4% (w/v) paraformaldehyde (PFA) for 20 min. Cells were permeabilized for 30 min in 0.1% (w/v) saponin and then incubated for 1 hr with streptavidin-AF488 (50 μg/ml). Cells were then mounted for imaging analysis. Alternatively, P2M6 was pre-incubated for 1 hr on ice with streptavidin-AF488 at 50 μg/ml and the peptide-streptavidin complexes were at 1/10 dilution incubated with DC for 1, 5, 15, 30 or 60 min at 4° C. and the cells were, after washing, directly mounted without fixation or permeabilization.
# In another experiment set up, DC (2×10^5/ml) were incubated for 1 hr at 4° C. with P2M6 at different concentrations (10, 25, 50, 100, or 200 μg/ml). Cells were fixed and permeabilized to incubate for 1 hr with streptavidin-AF488 (50 μg/ml). Cells were washed and mounted for imaging analysis. Alternatively, Different concentrations of P2M6 ([…]) were pre-incubated for 1 hr on ice with streptavidin-AF488 (500 μg/ml). The preformed complexes were at 1/10 dilutions incubated with DC for 1 hr at 4° C. The cells were, after washing, directly mounted without fixation or permeabilization.
# All cells were mounted using the VectaShield mounting medium containing DAPI (Vector Laboratories). Cells were analyzed using the FluoView FV3000 confocal microscope equipped with a 100× oil objective (aperture 1.45) and Cool/SNAP HQ2 image acquisition camera (Olympus). Images were captured with the FV-ASW 1.6b software and analyzed using the Imaris software (Bitplane AG).
# [6] = test system: autologous CD4 and CD8 T cells; assay: Antigen-loaded DC co-culture with autologous lymphocytes, proliferation; conditions: DC:T 1:5, 2 weeks co-culture, CellTrace Violet
# Experimental: PBMC were isolated from healthy blood donors from which monocytes were isolated to culture DC and the remaining cells (mostly lymphocytes) were stored frozen as a source of autologous lymphocytes. DC were then incubated for 24 hr with P2+G, IPA1E2 or the IPA1E2-P2+G fusion polypeptide (SEQ ID NO: 58) in round bottom 96-well plates (5×10^4 cells/well) without adding additional adjuvants. The frozen lymphocytes were revived and labelled with CellTrace Violet (2.5 μM) for 10 min at 37° C. and then added to the DC wells at 2.5×10^5 cells/well (DC:T ratio=1:5). After 2 weeks of co-culture, the proliferation of CD4+ and CD8+ T cell and CD19+ B cell was analyzed by flow cytometry.
# [7] = test system: PBMC; assay: PBMC activation, TNFα and IL-1β ELISA; conditions: PBMC stimulated 24 hr, TNFα in media
# Experimental: Buffy coat fractions were obtained from healthy blood donors at the Singapore Health Sciences Authority, with Institutional ethics approval, and PBMC were isolated using Ficoll-Paque (GE Healthcare). To isolate monocytes, PBMC were re-suspended to 1×10^7 cells/ml in the RPMI medium contained 5% (v/v) BCS and incubated for 1 hr in T75 flasks (20 ml/flask). Monocytes that adhered were harvested. To culture macrophages and DC [Cao, W., et al., Blood 107: 2777-2785, (2006), incorporated herein by reference], monocytes were resuspended to 1×10^6 cells/ml and cultured in 6-well plates (2 ml/well). Macrophages were cultured by adding M-CSF to 20 ng/ml and DC were cultured with 20 ng/ml GM-CSF and 40 ng/ml IL-4. M-CSF, GM-CSF and IL-4 were obtained from R&D Systems (Mineapolis, Minn.). Cells were cultured for 6 days with half of the media being replenished every two days.
# Purified proteins in PBS (30 μg/ml) were coated in triplicates in 96-well plates (50 μl/well) for 12 hr and PBMC (3×10^6 cells/ml), monocytes (1×10^6 cells/ml), macrophages (0.5×10^6 cells/ml) or DC (0.5×10^6 cells/ml) were re-suspended in macrophage serum-free medium containing penicillin and streptomycin and cultured for 24 hr in these plates at 100 μl/well. Where TLR ligands were used to stimulate these cells, they were added to the media: LPS (500 ng/ml for DC and macrophages and 10 ng/ml for PMBC and monocytes, InvivoGen), flagellin (1 μg/ml, InvivoGen), lipoteichic acid (LTA, 10 μg/ml). Cell activation was determined by measuring TNFα and IL-1β in the culture media using ELISA kits (Invitrogen).
Compound,haemolysis [1],carrying ovalbumin into DC cytoplasm [2],"DC maturation (MHC class II, CD40, CD80, CD83, CD86) [3]",CPP activity compared with NCL-P2 [4],CPP activity compared with NCL-P2 ([4]; listed as P2+G),carrying cargo protein streptavidin into DC cytoplasm [5],"time of incubation within which DC were penetrated ([5]; 200 μg/ml, 4° C.) [min]","DC penetration over time ([5]; 1, 5, 15, 30 and 60 min, 4° C.)",DC penetration at 10 μg/ml of P2+G ([5]; 1 hr at 4° C.),DC penetration at 25 μg/ml of P2+G ([5]; 1 hr at 4° C.),"time to saturation of DC penetration ([5]; P2+G 200 μg/ml, on ice) [min]",intracellular localisation in DC ([5]; confocal microscopy),"change of intracellular pool in DC with increasing P2+G concentration ([5]; free peptide 25 to 200 μg/ml, streptavidin-bound 10 to 100 μg/ml)",T cell proliferation / activation induced by peptide-loaded DC [6],adjuvant (alarmin) activity compared with NCL-P2 [7],increase in adjuvant (alarmin) activity compared with NCL-P2 [7] [fold]
"CC[C@H](C)[C@H](NC(=O)[C@H](CCCNC(=N)N)NC(=O)[C@H](CCCNC(=N)N)NC(=O)[C@H](CCCNC(=N)N)NC(=O)[C@H](CC(C)C)NC(=O)[C@@H](NC(=O)[C@@H](NC(=O)[C@H](CC(C)C)NC(=O)[C@@H](N)CC(C)C)[C@@H](C)CC)[C@@H](C)CC)C(=O)N[C@@H](CCCNC(=N)N)C(=O)N[C@@H](CCCCN)C(=O)N[C@@H](CCC(N)=O)C(=O)N[C@@H](C)C(=O)N[C@@H](Cc1c[nH]cn1)C(=O)N[C@@H](C)C(=O)N[C@@H](Cc1c[nH]cn1)C(=O)N[C@@H](CO)C(=O)N[C@@H](CCCCN)C(=O)O [CPP5, LLIILRRRIRKQAHAHSK] (H-LLIILRRRIRKQAHAHSK-OH)",clearly haemolytic,–,–,–,–,–,–,–,–,–,–,–,–,–,–,–
GGFGGRGGGRGGRGGFGGRGGRGGFGGRGGFRGGRGG (NCL-P2+G),–,carried ovalbumin into DC cytoplasm,effectively activated DC maturation,slightly higher CPP activity,slightly increased their CPP activities,can carry cargo proteins across the cell membrane into the cytoplasm; also recorded: carry a cargo protein streptavidin into the DC cytoplasm,≤ 1,increased progressively from 5 to 60 min,not detectable; also recorded: no detectable DC penetration,low level of DC penetration,30,penetrated into the nucleoli faster than it penetrated into the cytoplasm,increased following increasing concentrations,might not induce significant T cell activation to itself,significantly higher alarmin activity,3
